Legend:
[1] = test system: CAT protein in lungs; test: IV gene transfer in mice: lung CAT reporter expression (plasmid p4119) by ELISA; assay type: in vivo, ICR female mice; details: for mean CAT expression level (CAT ELISA): formulated with cholesterol and plasmid p4119, IV, five mice each, value followed by +/- spread
Protocol: This example provides an evaluation of the cationic lipid prepared in Example 1.
Two mice studies have been performed for the evaluation of cationic lipids of the present invention, in comparison with DOTIM (see, Liu, et al, Nature Biotechnology 15:167-173 (1997)). In brief, the lipid combinations were tested as carriers for gene transfer by intravenous delivery in ICR female mice (25 g), and expression was determined using the plasmid p4119 containing the CAT reporter gene under the control of the HCMV promoter. The lipids were dissolved in a mixture of chloroform and methanol (1:1). Lipid films of cationic and neutral lipid (either cholesterol or DLPE) at a 1:1 molar ratio were formed with a rotary evaporator. The films were hydrated with 5% dextrose in water (D5W) at room temperature and extruded through a series of membranes having pore sizes of 400 nm, 200 nm, and 50 nm.
DNA-liposome complexes were prepared at a 1:6 DNA:cationic lipid ratio (mg DNA per μmole cationic lipid) by adding the DNA, in a solution at 0.625 mg/mL concentration in D5W to the solution of liposomes, in an equal volume, with constant stirring, using a Hamilton Dilutor 540B (Hamilton, Reno, Nev.). DOTIM:cholesterol was used at a 1:6 DNA:cationic lipid ratio. The DNA solution was 0.3125 mg/mL DNA in D5W. The resulting complexes were sized using a Submicron Particle Sizer 370 (Nicomp, Santa Barbara, Calif.). Zeta potential was determined by a Zeta Plus, Zeta Potential Analyzer (Brookhaven Instruments Corp.). A total of 5 mice were tested per group. A dose of 62.5 μg p4119 plasmid DNA in 200 μL D5W was injected by tail vein per mouse. The lungs were harvested after 24 hours and assayed for CAT protein by ELISA assay. […] The upper organic phase was then transferred into scintillation vials containing 5 mL of Ready Safe Liquid Scintillation Cocktail (Beckman, Fullerton, Calif.). Samples were counted for 1 min each. […]

[2] = IV toleration and necropsy observations in rabbits; assay type: in vivo, rabbit; details: just the lipid, about 24 h
Protocol: (§1) Pilot studies were conducted to assess the suitability of rabbits as a development model for delivery of lipid:DNA complexes. The study confirmed that rabbits offer the ability to express transfected genes as well as display some anticipated toxicity endpoints.
(§2) A 2 mL blood sample is collected immediately prior to dose delivery for serum collection and another 2 mL for a CBC/clinical chemistry screen. Sufficient blood is also collected at necropsy to perform a CBC and clinical chemistry screen and preserve serum (minimum of 8 mL).
(§3) Approximately 24 hours after dosing the animals are euthanized using a barbiturate overdose. Following euthanasia, body weights are determined and an examination is made for the presence of pleural fluid. Any fluid present is harvested while avoiding blood contamination. Total protein and albumin levels are determined on the pleural fluid.
(§4) Tissues are collected and preserved as follows: lung tissue (8 vials in liquid nitrogen, 2 lobes infused with formalin, and optionally 2 Whirlpaks® in dry ice); liver tissue (multiple sites in formalin); kidney tissue (multiple sites in formalin); spleen tissue (multiple sites in formalin); heart tissue (multiple sites in formalin); and multiple serum samples (6 mL minimum in dry ice).

[3] = test system: CAT reporter protein in lung and serum; test: IV delivery in rabbits: CAT ELISA, lung and serum; assay type: in vivo; details: Rabbit #4, lipid only, highest vol. IV, about 24 h
Protocol: This example provides an evaluation of Compound 1 as a suitable lipid in DNA:lipid complexes for transfection in rabbits.
as §1, §2, §3, §4

SMILES | mean CAT expression level (CAT ELISA) [1] [pg/mg] | lung CAT expression / in vivo activity, in words ([1]; IV, mice, both protocols) | airway foam or excessive pleural fluid [2] | lesions [2] | lung appearance at necropsy [2] | CAT ELISA, lung [3] [pg/mg] | CAT ELISA, serum [3] [pg/mL]
CCCCCCCCCCCCCCCCCC[N+]1=C(CCCCCCCCCCCCCCCCC)N(CCO)CC1 [Formula III (Compound 2)] | 853.20 | – | – | – | – | – | –
CCCCCCCC/C=C\CCCCCCCC[N+]1=C(CCCCCCC/C=C\CCCCCCCC)N(CCO)CC1 [Compound 1] | 306.09 | retained the in vivo activity of DOTIM | no airway foam or excessive pleural fluid was noted | No lesions were noted | diffusely red lungs which failed to collapse | 0 | 0

— patent publication US6121457A, “Compositions and methods using novel substituted imidazolium lipids” (Megabios Corporation, priority 1998, dated 2000)
